ChEMBL document CHEMBL3098115, “Drug discovery considerations in the development of covalent inhibitors” (2014)

Tests used:
Format in all cases: functional
[1] = test system: Mus musculus; assay: Ex vivo inhibition of EST31 in C57BL/6 mouse liver at 1 mg/kg, ip after 1 hr relative to vehicle-treated control; conditions: C57BL/6, Liver, route intraperitoneal
[2] = test system: Mus musculus; assay: Ex vivo inhibition of EST31 in C57BL/6 mouse kidney at 1 mg/kg, ip after 1 hr relative to vehicle-treated control; conditions: C57BL/6, Kidney, route intraperitoneal
[3] = test system: Mus musculus; assay: Ex vivo inhibition of CE6 in C57BL/6 mouse kidney at 1 mg/kg, ip after 1 hr relative to vehicle-treated control; conditions: C57BL/6, Kidney, route intraperitoneal
[4] = test system: Mus musculus; assay: Ex vivo inhibition of CE6 in C57BL/6 mouse liver at 1 mg/kg, ip after 1 hr relative to vehicle-treated control; conditions: C57BL/6, Liver, route intraperitoneal

Measured: inhibition in vivo at 1 mg/kg

C#CCCCCCCCCCNC(=O)Oc1cccc(-c2cccc(C(N)=O)c2)c1
< 20%: all assays above
